Values quoted from earlier work in patent US9388155B1, “Coumarin derivatives for cancer therapy” (Wellesley College, priority 2013, dated 2016).

Test system: pancreatic cancer cell line PANC-1
Settings: PANC-1, nutrient starvation conditions, within 24 hours

Which cytotoxicity does the source give for `CC(C)(OC(=O)C=Cc1ccc(O)cc1)C1Cc2c(ccc3ccc(=O)oc23)O1` (stereo not shown) [Angelmarin, 11-O-(p-hydroxy-cinnamoyl) columbianetin] here?
The cytotoxicity was 0.01 µg/mL.
